# Experiments:
# [1] = Lipophilicity, log D of the compound at pH 7.4; format: physicochemical; conditions: buffer, read-out: logD
# [2] = Solubility of the compound in PBS buffer at pH 7.4 by shake-flask method; format: physicochemical
# Cytochrome P450 3A4 = Cytochrome P450 3A4 (Homo sapiens, UniProt P08684); assay: Inhibition of CYP3A4 (unknown origin) by luciferase reporter assay in presence of NADPH regeneration system; format: ADME
# Cytochrome P450 2D6 = Cytochrome P450 2D6 (Homo sapiens, UniProt P10635); assay: Inhibition of CYP2D6 (unknown origin) by luciferase reporter assay in presence of NADPH regeneration system; format: ADME
# Sequence of Cytochrome P450 2D6 (P10635 whole entry): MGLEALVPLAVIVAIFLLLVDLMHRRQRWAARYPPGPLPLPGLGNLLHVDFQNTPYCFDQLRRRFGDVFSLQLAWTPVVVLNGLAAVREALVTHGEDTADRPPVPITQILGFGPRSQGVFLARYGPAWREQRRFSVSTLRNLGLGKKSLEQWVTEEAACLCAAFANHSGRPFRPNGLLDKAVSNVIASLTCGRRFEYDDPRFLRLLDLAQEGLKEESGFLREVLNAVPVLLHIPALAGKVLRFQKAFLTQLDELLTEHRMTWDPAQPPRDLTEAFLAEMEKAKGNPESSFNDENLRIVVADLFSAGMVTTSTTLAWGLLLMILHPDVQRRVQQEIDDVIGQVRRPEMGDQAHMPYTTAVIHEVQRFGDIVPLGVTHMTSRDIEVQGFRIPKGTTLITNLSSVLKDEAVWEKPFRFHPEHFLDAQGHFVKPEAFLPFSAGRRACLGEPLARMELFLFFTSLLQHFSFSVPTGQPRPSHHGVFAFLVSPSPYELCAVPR
# Cytochrome P450 2C9 = Cytochrome P450 2C9 (Homo sapiens, UniProt P11712); assay: Inhibition of CYP2C9 (unknown origin) by luciferase reporter assay in presence of NADPH regeneration system; format: ADME
# Cytochrome P450 2C19 = Cytochrome P450 2C19 (Homo sapiens, UniProt P33261); assay: Inhibition of CYP2C19 (unknown origin) by luciferase reporter assay in presence of NADPH regeneration system
# Cytochrome P450 1A2 = molecular target: T1, Cytochrome P450 1A2 (Homo sapiens, UniProt P05177); assay: Inhibition of CYP1A2 (unknown origin) by luciferase reporter assay in presence of NADPH regeneration system; format: ADME
# T1 sequence (P05177 whole entry): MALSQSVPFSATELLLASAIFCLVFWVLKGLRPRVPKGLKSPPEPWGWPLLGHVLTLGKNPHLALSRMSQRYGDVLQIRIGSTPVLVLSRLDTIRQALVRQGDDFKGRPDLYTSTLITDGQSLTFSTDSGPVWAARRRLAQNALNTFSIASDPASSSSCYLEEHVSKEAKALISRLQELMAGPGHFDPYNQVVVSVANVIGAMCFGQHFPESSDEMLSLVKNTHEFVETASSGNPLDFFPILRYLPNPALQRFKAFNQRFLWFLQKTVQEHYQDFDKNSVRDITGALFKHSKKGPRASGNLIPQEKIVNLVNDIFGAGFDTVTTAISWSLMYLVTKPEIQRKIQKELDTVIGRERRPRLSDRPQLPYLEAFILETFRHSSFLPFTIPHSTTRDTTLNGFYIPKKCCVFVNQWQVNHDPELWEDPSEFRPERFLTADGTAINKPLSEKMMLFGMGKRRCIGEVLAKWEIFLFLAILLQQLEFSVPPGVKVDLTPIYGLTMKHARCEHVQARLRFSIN
# [3] = Half life in rat liver microsomes; format: ADME
# [4] = Half life in human liver microsomes; format: ADME
# Neuromedin-K receptor [5] = molecular target: T2, Neuromedin-K receptor (Homo sapiens, UniProt P29371)
# T2 sequence (P29371 whole entry): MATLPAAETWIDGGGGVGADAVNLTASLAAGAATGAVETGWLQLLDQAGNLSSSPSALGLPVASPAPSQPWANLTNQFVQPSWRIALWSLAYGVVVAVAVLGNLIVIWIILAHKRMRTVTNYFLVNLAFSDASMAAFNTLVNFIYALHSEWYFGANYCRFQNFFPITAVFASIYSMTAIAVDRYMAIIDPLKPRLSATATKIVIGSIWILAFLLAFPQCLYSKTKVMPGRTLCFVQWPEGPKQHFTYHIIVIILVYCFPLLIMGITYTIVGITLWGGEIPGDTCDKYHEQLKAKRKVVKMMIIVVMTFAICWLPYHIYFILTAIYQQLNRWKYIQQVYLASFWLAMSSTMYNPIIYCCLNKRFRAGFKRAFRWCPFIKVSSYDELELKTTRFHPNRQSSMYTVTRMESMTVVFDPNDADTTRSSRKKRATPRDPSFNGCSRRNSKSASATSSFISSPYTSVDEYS
# in vivo [6] = conditions: Sprague-Dawley, rat, po, 3 mg/kg
# Neuromedin-K receptor [7] = molecular target: T2, Neuromedin-K receptor; assay: biochemical
# Description: Displacement of [3H]-SB222200 from recombinant human NK3R expressed in CHO cell membranes after 90 mins by scintillation counting analysis
# [8] = Apparent permeability across apical to basolateral side in human Caco2 cells in presence of 0.1% bovine serum albumin; conditions: Caco-2
# [9] = Apparent permeability across basolateral to apical side in human Caco2 cells in presence of 0.1% bovine serum albumin; conditions: Caco-2
# [10] = Ratio of apparent permeability across apical to basolateral over basolateral to apical side in human Caco2 cells in presence of 0.1% bovine serum albumin; format: ADME, cell-based; conditions: Caco-2
# [11] = molecular target: Kappa-type opioid receptor (Homo sapiens) (UniProt P41145); assay: Inhibition of KOR (unknown origin) at 10 uM relative to control
# Sequence of Kappa-type opioid receptor (Homo sapiens) (P41145 whole entry): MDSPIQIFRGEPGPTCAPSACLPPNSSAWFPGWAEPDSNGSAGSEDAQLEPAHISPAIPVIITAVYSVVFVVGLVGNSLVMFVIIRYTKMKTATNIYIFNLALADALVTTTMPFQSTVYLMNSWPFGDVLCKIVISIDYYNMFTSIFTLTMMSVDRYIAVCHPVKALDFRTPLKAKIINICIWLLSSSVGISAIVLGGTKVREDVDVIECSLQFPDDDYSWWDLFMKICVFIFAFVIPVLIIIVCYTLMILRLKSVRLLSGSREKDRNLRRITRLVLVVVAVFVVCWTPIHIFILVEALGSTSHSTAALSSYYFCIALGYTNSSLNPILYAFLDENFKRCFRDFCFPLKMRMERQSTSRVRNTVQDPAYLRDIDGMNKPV
# [12] = molecular target: Adenosine receptor A1 (Homo sapiens) (UniProt P30542); assay: Displacement of [3H]DPCPX from recombinant human adenosine A1 receptor expressed in CHO cells after 60 mins by scintillation counting analysis relative to control; format: cell-based
# [13] = molecular target: Adenosine receptor A3 (Homo sapiens) (UniProt P0DMS8); assay: Inhibition of recombinant human adenosine A3 receptor expressed in HEK293 cells by radioligand displacement assay relative to control; format: cell-based; conditions: concentration not given here
# [14] = molecular target: Translocator protein (Homo sapiens) (UniProt P30536); assay: Inhibition of benzodiazepine receptor (unknown origin) by radioligand displacement assay relative to control; conditions: concentration not given here
# Sequence of Translocator protein (Homo sapiens) (P30536 whole entry): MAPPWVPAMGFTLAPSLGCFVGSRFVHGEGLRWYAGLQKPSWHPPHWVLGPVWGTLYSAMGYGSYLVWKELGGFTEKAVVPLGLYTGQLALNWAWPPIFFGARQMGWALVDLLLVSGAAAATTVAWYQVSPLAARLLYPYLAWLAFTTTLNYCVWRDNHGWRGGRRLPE
# [15] = molecular target: Gastrin/cholecystokinin type B receptor (Homo sapiens) (UniProt P32239); assay: Inhibition of recombinant human CCK2 receptor expressed in CHO cells by radioligand displacement assay relative to control; format: cell-based; conditions: concentration not given here
# Sequence of Gastrin/cholecystokinin type B receptor (Homo sapiens) (P32239 whole entry): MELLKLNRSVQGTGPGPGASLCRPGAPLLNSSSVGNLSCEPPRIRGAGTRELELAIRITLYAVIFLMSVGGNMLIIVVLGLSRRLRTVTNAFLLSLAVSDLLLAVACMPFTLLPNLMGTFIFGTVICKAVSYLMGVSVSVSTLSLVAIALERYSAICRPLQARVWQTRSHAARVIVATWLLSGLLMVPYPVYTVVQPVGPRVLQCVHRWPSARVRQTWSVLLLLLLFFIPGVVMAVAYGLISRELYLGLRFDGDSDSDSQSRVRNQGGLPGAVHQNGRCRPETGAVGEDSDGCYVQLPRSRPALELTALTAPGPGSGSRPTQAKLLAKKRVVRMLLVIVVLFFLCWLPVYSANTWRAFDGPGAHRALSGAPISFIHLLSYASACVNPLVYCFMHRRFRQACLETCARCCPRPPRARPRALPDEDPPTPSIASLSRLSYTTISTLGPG
# [16] = molecular target: Prostaglandin E2 receptor EP4 subtype (Homo sapiens) (UniProt P35408); assay: Inhibition of recombinant human prostanoid receptor EP4 expressed in HEK293 cells by radioligand displacement assay relative to control; format: cell-based; conditions: concentration not given here
# [17] = Fraction unbound in rat plasma at 5 uM after 4 hrs by equilibrium dialysis method; format: ADME, cell-free
# [18] = Total systemic clearance in Sprague-Dawley rat at 1 mg/kg, iv by LC-MS/MS analysis; format: ADME, organism-based; parameters: dose 1 mg/kg, route intravenous; conditions: in vivo
# Rattus norvegicus [19] = assay: Unbound AUC in Sprague-Dawley rat at 1 mg/kg, iv by LC-MS/MS analysis; format: ADME, organism-based; parameters: dose 1 mg/kg, route intravenous; conditions: in vivo
# Rattus norvegicus [20] = assay: Unbound AUC in Sprague-Dawley rat at 3 mg/kg, po by LC-MS/MS analysis; format: ADME, organism-based; parameters: dose 3 mg/kg, route oral; conditions: in vivo
# Rattus norvegicus [21] = assay: Unbound Cmax in Sprague-Dawley rat at 3 mg/kg, po by LC-MS/MS analysis; format: ADME, organism-based; parameters: dose 3 mg/kg, route oral; conditions: in vivo
# [22] = Fraction unbound in rat brain at 5 uM after 4 hrs by equilibrium dialysis method; format: ADME, tissue-based
# in vivo [23] = conditions: Sprague-Dawley, rat, iv, 1 mg/kg
# Description: Volume of distribution at steady state in Sprague-Dawley rat at 1 mg/kg, iv by LC-MS/MS analysis
# in vivo [24] = conditions: Sprague-Dawley, rat, iv, 1 mg/kg; remark: listed apart in the source
# in vivo [25] = conditions: Sprague-Dawley, rat, po, 3 mg/kg; remark: listed apart in the source
# [26] = molecular target: Kappa-type opioid receptor (Homo sapiens) (UniProt P41145); assay: Inhibition of KOR (unknown origin) at 1 uM relative to control
# [27] = molecular target: Mu-type opioid receptor (Homo sapiens) (UniProt P35372); assay: Inhibition of recombinant human mu opioid receptor expressed in HEK293 cells at 1 uM by radioligand displacement assay relative to control; format: cell-based
# [28] = molecular target: Muscarinic acetylcholine receptor M3 (Homo sapiens) (UniProt P20309); assay: Displacement of [3H]4-DAMP from recombinant human muscarinic M3 receptor expressed in CHO cells at 1 uM after 60 mins by scintillation counting analysis relative to control; format: cell-based
# [29] = molecular target: Muscarinic acetylcholine receptor M4 (Homo sapiens) (UniProt P08173); assay: Displacement of [3H]4-DAMP from recombinant human muscarinic M4 receptor expressed in CHO cells at 1 uM after 60 mins by scintillation counting analysis relative to control; format: cell-based
# Sequence of Muscarinic acetylcholine receptor M4 (Homo sapiens) (P08173 whole entry): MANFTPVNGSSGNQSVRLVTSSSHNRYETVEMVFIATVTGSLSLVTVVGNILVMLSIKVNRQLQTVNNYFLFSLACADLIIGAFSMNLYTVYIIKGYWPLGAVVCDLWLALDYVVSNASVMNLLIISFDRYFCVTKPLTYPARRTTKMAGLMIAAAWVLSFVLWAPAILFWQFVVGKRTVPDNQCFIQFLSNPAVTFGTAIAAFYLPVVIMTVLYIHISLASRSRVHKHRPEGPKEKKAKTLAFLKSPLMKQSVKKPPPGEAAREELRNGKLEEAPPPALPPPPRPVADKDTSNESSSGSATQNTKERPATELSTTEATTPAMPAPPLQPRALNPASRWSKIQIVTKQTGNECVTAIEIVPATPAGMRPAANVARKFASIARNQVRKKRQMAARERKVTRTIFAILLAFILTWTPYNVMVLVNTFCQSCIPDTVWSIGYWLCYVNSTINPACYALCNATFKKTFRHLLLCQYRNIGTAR
# [30] = molecular target: Muscarinic acetylcholine receptor M5 (Homo sapiens) (UniProt P08912); assay: Displacement of [3H]4-DAMP from recombinant human muscarinic M5 receptor expressed in CHO cells at 1 uM after 60 mins by scintillation counting analysis relative to control; format: cell-based
# Sequence of Muscarinic acetylcholine receptor M5 (Homo sapiens) (P08912 whole entry): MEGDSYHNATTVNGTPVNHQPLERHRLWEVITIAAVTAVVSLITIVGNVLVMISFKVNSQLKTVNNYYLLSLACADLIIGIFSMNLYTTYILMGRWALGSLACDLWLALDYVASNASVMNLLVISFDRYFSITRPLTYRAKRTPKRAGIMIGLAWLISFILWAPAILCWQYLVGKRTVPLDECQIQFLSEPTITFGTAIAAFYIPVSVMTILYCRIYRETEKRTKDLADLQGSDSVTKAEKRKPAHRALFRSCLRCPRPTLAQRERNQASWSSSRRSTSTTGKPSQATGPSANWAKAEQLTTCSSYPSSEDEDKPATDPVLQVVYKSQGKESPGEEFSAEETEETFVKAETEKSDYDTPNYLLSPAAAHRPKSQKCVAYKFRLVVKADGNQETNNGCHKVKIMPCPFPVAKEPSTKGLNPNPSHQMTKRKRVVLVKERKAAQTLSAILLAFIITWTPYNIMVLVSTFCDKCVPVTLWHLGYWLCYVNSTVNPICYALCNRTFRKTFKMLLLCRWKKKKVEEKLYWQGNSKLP
# [31] = molecular target: D(3) dopamine receptor (Homo sapiens) (UniProt P35462); assay: Displacement of [3H]methyl-spiperone from recombinant human dopamine D3 receptor expressed in CHO cells at 1 uM by scintillation counting analysis relative to control; format: cell-based
# [32] = molecular target: Delta-type opioid receptor (Rattus norvegicus) (UniProt P33533); assay: Displacement of [3H]naloxone from delta opioid receptor in rat cerebral cortex at 1 uM after 40 mins by scintillation counting analysis relative to control; format: tissue-based
# [33] = molecular target: 5-hydroxytryptamine receptor 1A (Homo sapiens) (UniProt P08908); assay: Inhibition of recombinant human 5HT1A receptor expressed in HEK293 cells at 1 uM by radioligand displacement assay relative to control; format: cell-based
# [34] = molecular target: 5-hydroxytryptamine receptor 2A (Homo sapiens) (UniProt P28223); assay: Displacement of [3H]ketanserin from recombinant human 5HT2A receptor expressed in HEK293 cells at 1 uM after 60 mins by scintillation counting analysis relative to control; format: cell-based
# Sequence of 5-hydroxytryptamine receptor 2A (Homo sapiens) (P28223 whole entry): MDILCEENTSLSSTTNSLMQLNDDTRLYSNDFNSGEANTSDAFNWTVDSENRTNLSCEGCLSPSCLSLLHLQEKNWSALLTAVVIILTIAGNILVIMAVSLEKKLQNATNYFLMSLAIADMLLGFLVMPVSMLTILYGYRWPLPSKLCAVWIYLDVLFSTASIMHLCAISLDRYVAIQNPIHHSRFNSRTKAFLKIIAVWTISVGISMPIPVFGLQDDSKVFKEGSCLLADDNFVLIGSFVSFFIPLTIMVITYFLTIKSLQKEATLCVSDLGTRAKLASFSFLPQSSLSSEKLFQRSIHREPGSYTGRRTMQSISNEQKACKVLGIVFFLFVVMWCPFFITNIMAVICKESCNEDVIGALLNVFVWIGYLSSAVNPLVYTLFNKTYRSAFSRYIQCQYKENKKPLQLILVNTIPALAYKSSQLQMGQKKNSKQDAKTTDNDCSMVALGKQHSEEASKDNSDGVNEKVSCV
# [35] = molecular target: 5-hydroxytryptamine receptor 2B (Homo sapiens) (UniProt P41595); assay: Displacement of [3H]mesulergine from recombinant human 5HT2B receptor expressed in CHO cells at 1 uM after 60 mins by scintillation counting analysis relative to control; format: cell-based
# [36] = molecular target: 5-hydroxytryptamine receptor 7 (Homo sapiens) (UniProt P34969); assay: Inhibition of recombinant human 5HT7 receptor expressed in CHO cells at 1 uM by radioligand displacement assay relative to control; format: cell-based
# [37] = molecular target: Histamine H2 receptor (Homo sapiens) (UniProt P25021); assay: Displacement of [125I]APT from recombinant human histamine H2 receptor expressed in CHO cells at 1 uM after 120 mins by scintillation counting analysis relative to control; format: cell-based
# Sequence of Histamine H2 receptor (Homo sapiens) (P25021 whole entry): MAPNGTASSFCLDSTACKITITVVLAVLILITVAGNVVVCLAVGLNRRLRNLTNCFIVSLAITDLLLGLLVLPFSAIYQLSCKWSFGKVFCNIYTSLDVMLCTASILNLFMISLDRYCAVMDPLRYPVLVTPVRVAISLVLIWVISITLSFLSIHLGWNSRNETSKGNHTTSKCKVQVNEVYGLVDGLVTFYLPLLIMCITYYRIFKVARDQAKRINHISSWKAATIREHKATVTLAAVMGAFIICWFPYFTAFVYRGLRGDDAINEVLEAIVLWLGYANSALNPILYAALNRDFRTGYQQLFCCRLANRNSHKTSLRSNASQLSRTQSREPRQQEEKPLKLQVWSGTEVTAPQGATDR
# [38] = molecular target: Sodium-dependent noradrenaline transporter (Homo sapiens) (UniProt P23975); assay: Displacement of [3H]nisoxetine from recombinant human norepinephrine transporter expressed in CHO cells at 1 uM after 120 mins by scintillation counting analysis relative to control; format: cell-based
# [39] = molecular target: Sodium-dependent dopamine transporter (Homo sapiens) (UniProt Q01959); assay: Displacement of [3H]BTCP from recombinant human dopamine transporter expressed in CHO cells at 1 uM after 120 mins by scintillation counting analysis relative to control; format: cell-based
# Sequence of Sodium-dependent dopamine transporter (Homo sapiens) (Q01959 whole entry): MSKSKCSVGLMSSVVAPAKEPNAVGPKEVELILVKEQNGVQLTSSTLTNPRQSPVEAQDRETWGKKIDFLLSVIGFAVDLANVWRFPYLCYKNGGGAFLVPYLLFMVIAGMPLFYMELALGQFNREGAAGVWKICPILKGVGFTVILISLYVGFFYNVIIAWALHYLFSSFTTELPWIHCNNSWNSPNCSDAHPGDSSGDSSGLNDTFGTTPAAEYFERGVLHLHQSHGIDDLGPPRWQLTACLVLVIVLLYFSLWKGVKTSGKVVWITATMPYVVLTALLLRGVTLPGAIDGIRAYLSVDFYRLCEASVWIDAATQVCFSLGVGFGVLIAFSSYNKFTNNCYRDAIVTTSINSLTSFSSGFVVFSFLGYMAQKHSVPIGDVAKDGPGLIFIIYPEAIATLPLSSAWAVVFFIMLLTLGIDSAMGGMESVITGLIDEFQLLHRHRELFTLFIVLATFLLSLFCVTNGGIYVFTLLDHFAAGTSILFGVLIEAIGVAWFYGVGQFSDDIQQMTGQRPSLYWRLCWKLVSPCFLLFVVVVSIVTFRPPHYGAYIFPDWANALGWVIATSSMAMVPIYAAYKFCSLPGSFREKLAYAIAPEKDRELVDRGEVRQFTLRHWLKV
# [40] = molecular target: Kappa-type opioid receptor (Rattus norvegicus) (UniProt P34975); assay: Inhibition of rat recombinant KOR expressed in CHO cells at 1 uM by radioligand displacement assay relative to control; format: cell-based
# Sequence of Kappa-type opioid receptor (Rattus norvegicus) (P34975 whole entry): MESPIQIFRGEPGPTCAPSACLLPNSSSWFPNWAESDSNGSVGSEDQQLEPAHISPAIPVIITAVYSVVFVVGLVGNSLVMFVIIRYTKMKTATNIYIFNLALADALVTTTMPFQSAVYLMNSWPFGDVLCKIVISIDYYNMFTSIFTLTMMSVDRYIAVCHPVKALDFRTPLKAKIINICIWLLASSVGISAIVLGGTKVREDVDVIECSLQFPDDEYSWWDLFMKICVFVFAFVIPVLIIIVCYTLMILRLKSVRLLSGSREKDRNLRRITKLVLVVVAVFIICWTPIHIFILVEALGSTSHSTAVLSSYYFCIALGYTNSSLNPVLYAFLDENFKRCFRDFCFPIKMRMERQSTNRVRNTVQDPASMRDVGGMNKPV
# Sequence of Cytochrome P450 3A4 (P08684 whole entry): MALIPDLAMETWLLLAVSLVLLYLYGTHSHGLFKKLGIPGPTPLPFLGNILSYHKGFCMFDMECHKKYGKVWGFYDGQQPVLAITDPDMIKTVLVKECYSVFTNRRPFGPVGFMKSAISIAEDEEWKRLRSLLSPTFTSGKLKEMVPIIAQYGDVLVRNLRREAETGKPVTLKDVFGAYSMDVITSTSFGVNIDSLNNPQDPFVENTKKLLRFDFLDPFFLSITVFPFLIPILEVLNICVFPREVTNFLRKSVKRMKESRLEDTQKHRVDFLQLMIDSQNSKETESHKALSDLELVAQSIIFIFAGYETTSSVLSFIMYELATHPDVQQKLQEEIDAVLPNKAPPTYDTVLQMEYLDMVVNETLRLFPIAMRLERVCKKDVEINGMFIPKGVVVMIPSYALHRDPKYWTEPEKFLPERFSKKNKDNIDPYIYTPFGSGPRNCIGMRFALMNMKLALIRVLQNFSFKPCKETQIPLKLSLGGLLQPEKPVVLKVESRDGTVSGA
smiles,measurement,setting,value
O=C(c1ccc(F)cc1)N1CCn2c(nnc2-c2ccccn2)C1,logD,[1],1.1
same,solubility thermodynamic,[2],≥ 200 µM
same,IC50,Cytochrome P450 3A4,> 100 µM
same,IC50,Cytochrome P450 2D6,15 µM
same,IC50,Cytochrome P450 2C9,66 µM
same,IC50,Cytochrome P450 2C19,14 µM
same,IC50,Cytochrome P450 1A2,27 µM
same,half-life,[3],> 4 h
same,half-life,[4],> 4 h
same,IC50,Neuromedin-K receptor [5],4 µM
same,bioavailability,in vivo [6],108%
same,Ki,Neuromedin-K receptor [7],4.5 µM
CC(C)NCC(O)COc1cccc2ccccc12 (configuration not stated) [PROPRANOLOL],Papp A→B,[8],≥ 45 ×10⁻⁶ cm/s
same,Papp B→A,[9],≥ 45 ×10⁻⁶ cm/s
same,Ratio,[10],1
CC[C@H](NC(=O)c1c(O)c(-c2ccccc2)nc2ccccc12)c1ccccc1 [TALNETANT],inhibition,[11],12%
same,inhibition,[12],> 60%
same,inhibition,[13],> 60%
same,inhibition,[14],> 60%
same,inhibition,[15],> 60%
same,inhibition,[16],> 60%
same,"fraction unbound at 4 h, 5 µM",[17],0.0003
same,Papp A→B,[8],87.2 ×10⁻⁶ cm/s
same,Papp B→A,[9],98.5 ×10⁻⁶ cm/s
same,clearance,[18],2 mL/min/kg
same,fAUC,Rattus norvegicus [19],0.5 µM·min
same,fAUC,Rattus norvegicus [20],0.7 µM·min
same,fCmax,Rattus norvegicus [21],2.65 nM
same,"fraction unbound at 4 h, 5 µM",[22],0.01
same,Vd,in vivo [23],1.5 L/kg
same,half-life,in vivo [24],7.47 h
same,Tmax,in vivo [25],1 h
same,bioavailability,in vivo [6],47%
CC(=O)N(C)C1(c2ccccc2)CCN(CCC[C@]2(c3ccc(Cl)c(Cl)c3)CCCN(C(=O)c3ccccc3)C2)CC1 [OSANETANT],logD,[1],3.4
same,inhibition,[11],100%
same,inhibition,[26],75%
same,inhibition,[27],> 50%
same,inhibition,[28],> 50%
same,inhibition,[29],> 50%
same,inhibition,[30],> 50%
same,inhibition,[31],> 50%
same,inhibition,[32],> 50%
same,inhibition,[33],> 50%
same,inhibition,[34],> 50%
same,inhibition,[35],> 50%
same,inhibition,[36],> 50%
same,inhibition,[37],> 50%
same,inhibition,[38],> 50%
same,inhibition,[39],> 50%
same,"fraction unbound at 4 h, 5 µM",[17],0.006
same,fAUC,Rattus norvegicus [19],0.2 µM·min
same,fAUC,Rattus norvegicus [20],0.1 µM·min
same,fCmax,Rattus norvegicus [21],0.42 nM
same,"fraction unbound at 4 h, 5 µM",[22],0.001
same,inhibition,[40],> 50%
same,half-life,in vivo [24],2.02 h
same,Tmax,in vivo [25],0.75 h

# — ChEMBL document CHEMBL3421625, “Discovery and optimization of novel antagonists to the human neurokinin-3 receptor for the treatment of sex-hormone disorders (Part I)” (J Med Chem, 2015)
